For one experiment, the system named is sAPPβ release in SH-SY5Y cells. Description: sAPPβ release assay. The following applies: Homo sapiens, SH-SY5Y, 17 h, compounds incubated 17 h, MSD detection. The experiment is classed as cell-based. The method, boiled down: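 SH-SY5Y cells were exposed to compounds at 1% DMSO final for 17 h at 37 °C. Secreted sAPPβ in 20 μL of medium was quantified by MSD electrochemiluminescence immunoassay with 1 nM detection antibody. Cell plates were then used in an ATP assay for cytotoxicity.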
In the case of `CO[C@H]1CC[C@]2(CC1)Cc1ccc(-c3cnc4[nH]cc(C)c4c3)cc1C21N=C(C)C(N)=N1` (stereo partly drawn) [Example 116, (1r,4r)-4-Methoxy-5″-methyl-6′-(3-methyl-1H-pyrrolo[2,3-b]pyridin-5-yl)-3′H-dispiro[cyclohexane-1,2′-indene-1′,2″-imidazol]-4″-amine], the midpoint of inhibition, the IC50, lay at 12 nM. `[2H]C([2H])([2H])O[C@H]1CC[C@]2(CC1)Cc1ccc(Br)cc1C21N=C(C)C(N)=N1` (stereo partly drawn) [Example 117, (1r,4r)-6′-Bromo-5″-methyl-4-[(^2H3)methyloxy]-3′H-dispiro[cyclohexane-1,2′-indene-1′,2″-imidazol]-4″-amine] came in with an IC50 of 47 nM. For the compound `[2H]C([2H])([2H])O[C@H]1CC[C@]2(CC1)Cc1ccc(-c3cc(F)cc(C#N)c3)cc1C21N=C(C)C(N)=N1` (stereo partly drawn) [Example 118, 3-{(1r,4r)-4″-Amino-5″-methyl-4-[(^2H3)methyloxy]-3′H-dispiro[cyclohexane-1,2′-indene-1′,2″-imidazol]-6′-yl}-5-fluorobenzonitrile], the concentration for half-maximal inhibition (IC50) is 2.8 nM. `[2H]C([2H])([2H])O[C@H]1CC[C@]2(CC1)Cc1ccc(-c3cncc(Cl)c3)cc1C21N=C(C)C(N)=N1` (stereo partly drawn) [Example 119, (1r,4r)-6′-(5-Chloropyridin-3-yl)-5′-methyl-4-[(^2H3)methyloxy]-3′H-dispiro[cyclohexane-1,2′-indene-1′,2″-imidazol]-4″-amine] showed an IC50 of 0.97 nM. For the compound `CO[C@H]1CC[C@]2(CC1)Cc1ccc(-c3ccc4[nH]cc(C)c4c3)cc1C21N=C(C)C(N)=N1` (stereo partly drawn) [Example 121, (1r,4r)-4-Methoxy-5″-methyl-6′-(3-methyl-1H-indol-5-yl)-3′H-dispiro[cyclohexane-1,2′-indene-1′,2″-imidazol]-4″-amine], the IC50 amounted to 10 nM. Turning to `CC#Cc1cccc(-c2ccc3c(c2)C2(N=C(C)C(N)=N2)[C@]2(CC[C@H](OC)CC2)C3)c1Cl` (stereo partly drawn) [Example 123, (1r,4r)-6′-[2-Chloro-3-(prop-1-yn-1-yl)phenyl]-4-methoxy-5″-methyl-3′H-dispiro[cyclohexane-1,2′-indene-1′,2″-imidazol]-4″-amine], half-maximal inhibition (IC50) required 135 nM. Same read-out and setting: then `[2H]C([2H])([2H])O[C@H]1CC[C@]2(CC1)Cc1ccc(-c3cc(Cl)cc(C#N)c3)cc1C21N=C(C)C(N)=N1` (stereo partly drawn) [Example 125, 3-{(1r,4r)-4″-Amino-5″-methyl-4-[(^2H3)methyloxy]-3′H-dispiro[cyclohexane-1,2′-indene-1′,2″-imidazol]-6′-yl}-5-chlorobenzonitrile], with 0.5 nM; and `CO[C@H]1CC[C@]2(CC1)Cc1ccc(OCC3CCC3)cc1C21N=C(C)C(N)=N1` (stereo partly drawn) [Example 126, (1r,4r)-6′-(Cyclobutylmethoxy)-4-methoxy-5″-methyl-3′H-dispiro[cyclohexane-1,2′-indene-1′,2″-imidazol]-4″-amine], with 1.4 nM. In the case of `CC1=NC2(N=C1N)c1cc(-c3cncc(Cl)c3)ccc1CC21CCC(C(F)F)CC1` (stereo not drawn) [Example 129], 417 nM corresponded to half-maximal inhibition (IC50). Consider `CCO[C@H]1CC[C@]2(CC1)Cc1ccc(Br)cc1C21N=C(C)C(N)=N1` (stereo partly drawn) [Example 130, (1r,4r)-6′-Bromo-4-ethoxy-5″-methyl-3′H-dispiro[cyclohexane-1,2′-indene-1′,2″-imidazol]-4″-amine], for which the half-maximal inhibitory concentration (IC50) was found to be 148 nM. Still for that read-out and setting: for `CCO[C@H]1CC[C@]2(CC1)Cc1ccc(-c3cncc(C(F)(F)F)c3)cc1C21N=C(C)C(N)=N1` (stereo partly drawn) [Example 131] the value was 24 nM; for `CCO[C@H]1CC[C@]2(CC1)Cc1ccc(-c3cc(F)cc(C#N)c3)cc1C21N=C(C)C(N)=N1` (stereo partly drawn) [Example 132, 3-[(1r,4r)-4″-amino-4-ethoxy-5″-methyl-3′H-dispiro[cyclohexane-1,2′-indene-1′,2″-imidazol]-6′-yl]-5-fluorobenzonitrile], 17 nM; for `CC#Cc1cncc(-c2ccc3c(c2)C2(N=C(C)C(N)=N2)[C@]2(CC[C@H](OCC)CC2)C3)c1` (stereo partly drawn) [Example 135, (1r,4r)-4-Ethoxy-5″-methyl-6′-[5-(prop-1-yn-1-yl)pyridin-3-yl]-3′H-dispiro[cyclohexane-1,2′-indene-1′,2″-imidazol]-4″-amine], 0.85 nM.

The same experiment, now with this note: Homo sapiens, compounds incubated 17 h, MSD detection.
`CO[C@H]1CC[C@]2(CC1)Cc1ccc(-c3cncc(C(F)F)c3)cc1C21N=C(C)C(N)=N1` (stereo partly drawn) [Example 120, (1r,4r)-6′-[5-(Difluoromethyl)pyridin-3-yl]-4-methoxy-5″-methyl-3′H-dispiro[cyclohexane-1,2′-indene-1′,2″-imidazol]-4″-amine]: the IC50 was 3.1 nM. In the case of `CC1=NC2(N=C1N)c1cc(Br)ccc1CC21CCC(C(F)(F)F)CC1` (stereo not drawn) [Example 124, 6′-Bromo-5″-methyl-4-(trifluoromethyl)-3′H-dispiro[cyclohexane-1,2′-indene-1′,2″-imidazol]-4″-amine], the 50% inhibitory concentration (IC50) was 6950 nM. `COCc1cc(-c2ccc3c(c2)C2(N=C(C)C(N)=N2)[C@]2(CC[C@H](OC)CC2)C3)cc(C#N)c1F` (stereo partly drawn) [Example 127, 5-[(1r,4r)-4″-Amino-4-methoxy-5″-methyl-3′H-dispiro[cyclohexane-1,2′-indene-1′,2″-imidazol]-6′-yl]-2-fluoro-3-(methoxymethyl)benzonitrile] showed an IC50 of 5.1 nM. Compound `CCO[C@H]1CC[C@]2(CC1)Cc1ccc(-c3cncc(Cl)c3)cc1C21N=C(C)C(N)=N1` (stereo partly drawn) [Example 133, (1r,4r)-6′-(5-chloropyridin-3-yl)-4-ethoxy-5″-methyl-3′H-dispiro[cyclohexane-1,2′-indene-1′,2″-imidazol]-4″-amine] had an IC50 of 5.5 nM. `CCO[C@H]1CC[C@]2(CC1)Cc1ccc(-c3cc(C#N)cc(C(F)F)c3)cc1C21N=C(C)C(N)=N1` (stereo partly drawn) [Example 134, 3-[(1r,4r)-4″-Amino-4-ethoxy-5″-methyl-3′H-dispiro[cyclohexane-1,2′-indene-1′,2″-imidazol]-6′-yl]-5-(difluoromethyl)benzonitrile]: the half-maximal inhibitory concentration (IC50) came to 7.7 nM.

The term IC50 denotes the point on the concentration scale where inhibition reaches its midpoint. Read a high IC50 as weaker potency in that assay.

(Values after US10231967B2, “Compounds and their use as BACE inhibitors” (ASTRAZENECA AB, priority 2010, dated 2019).)
